From PubChem BioAssay AID2060500 (Molecular Pharmacology Branch, DTP, NCI, 2025)

Tested on: 596521-263-R-J1-PDC complex spheroids, viability % of control
Assay: Anticancer human tumor 596521-263-R-J1-PDC patient-derived soft tissue sarcoma cell line growth inhibition [GQUAD]
Conditions: for IC50: curve of first compound; for viability, T/C: stronger effect = lower value; active = viability on the fitted dose curve at most 10% of control; inactive = the rest
In short: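 Multi-cell-type spheroids of tumor cells with HUVEC and mesenchymal stem cells, treated with drug combinations. Concentrations descend in half-log steps from near clinical Cmax, or from 10 microM where Cmax is unknown; viability read-out.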

[1] = second compound 0.0316 µM, first compound 0.0316 µM
[2] = second compound 0.0316 µM, first compound 0.1 µM
[3] = second compound 0.0316 µM, first compound 0.316 µM
[4] = second compound 0.0316 µM, first compound 1 µM
[5] = second compound 0.0316 µM, first compound 3.16 µM
[6] = second compound 0.0316 µM, first compound 10 µM
[7] = second compound 0.1 µM, first compound 0.0316 µM
[8] = second compound 0.1 µM, first compound 0.1 µM
[9] = second compound 0.1 µM, first compound 0.316 µM
[10] = second compound 0.1 µM, first compound 1 µM
[11] = second compound 0.1 µM, first compound 3.16 µM
[12] = second compound 0.1 µM, first compound 10 µM
[13] = second compound 0.316 µM, first compound 0.0316 µM
[14] = second compound 0.316 µM, first compound 0.1 µM
[15] = second compound 0.316 µM, first compound 0.316 µM
[16] = second compound 0.316 µM, first compound 1 µM
[17] = second compound 0.316 µM, first compound 3.16 µM
[18] = second compound 0.316 µM, first compound 10 µM
[19] = second compound 1 µM, first compound 0.0316 µM
[20] = second compound 1 µM, first compound 0.1 µM
[21] = second compound 1 µM, first compound 0.316 µM
[22] = second compound 1 µM, first compound 1 µM
[23] = second compound 1 µM, first compound 3.16 µM
[24] = second compound 1 µM, first compound 10 µM
[25] = second compound 3.16 µM, first compound 0.0316 µM
[26] = second compound 3.16 µM, first compound 0.1 µM
[27] = second compound 3.16 µM, first compound 0.316 µM
[28] = second compound 3.16 µM, first compound 1 µM
[29] = second compound 3.16 µM, first compound 3.16 µM
[30] = second compound 3.16 µM, first compound 10 µM
[31] = second compound 10 µM, first compound 0.0316 µM
[32] = second compound 10 µM, first compound 0.1 µM
[33] = second compound 10 µM, first compound 0.316 µM
[34] = second compound 10 µM, first compound 1 µM
[35] = second compound 10 µM, first compound 3.16 µM
[36] = second compound 10 µM, first compound 10 µM
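Also: spheroids exposed to drugs for 7 days before viability reading.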
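For viability, T/C in this document: 100% = DMSO vehicle control viability.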

COc1ccc([C@@H](O)c2cc(-c3ncnc4cc(N5CCOCC5)ccc34)c(F)cc2Cl)nn1 + Cc1[nH]c2ccc(F)cc2c1-c1nc2c3cccnc3c3ncccc3c2[nH]1
inactive: viability, T/C [1] 96.5% | viability, T/C [2] 89% | viability, T/C [3] 94.6% | viability, T/C [4] 77.9% | viability, T/C [5] 69.3% | viability, T/C [6] 52% | viability, T/C [7] 98.6% | viability, T/C [8] 89.1% | viability, T/C [9] 97.7% | viability, T/C [10] 77.5% | viability, T/C [11] 64.7% | viability, T/C [12] 55.4% | viability, T/C [13] 94.2% | viability, T/C [14] 105% | viability, T/C [15] 95.9% | viability, T/C [16] 89.6% | viability, T/C [17] 72.2% | viability, T/C [18] 56.5% | viability, T/C [19] 94.7% | viability, T/C [20] 93.8% | viability, T/C [21] 95.8% | viability, T/C [22] 81.2% | viability, T/C [23] 69.1% | viability, T/C [24] 50.3% | viability, T/C [25] 89.1% | viability, T/C [26] 90.9% | viability, T/C [27] 83% | viability, T/C [28] 71.3% | viability, T/C [29] 64.5% | viability, T/C [30] 50.3% | viability, T/C [31] 92.2% | viability, T/C [32] 87.7% | viability, T/C [33] 82% | viability, T/C [34] 68.8% | viability, T/C [35] 61.7% | viability, T/C [36] 42.4%
> 10 µM: IC50 (second compound 0.0316 µM) | IC50 (second compound 0.1 µM) | IC50 (second compound 0.316 µM) | IC50 (second compound 1 µM) | IC50 (second compound 3.16 µM)
6.14 µM: IC50 (second compound 10 µM)

O=C(c1cc(Cc2n[nH]c(=O)c3ccccc23)ccc1F)N1CCN(C(=O)C2CC2)CC1 + Cc1[nH]c2ccc(F)cc2c1-c1nc2c3cccnc3c3ncccc3c2[nH]1
inactive: viability, T/C [1] 97.8% | viability, T/C [2] 97.8% | viability, T/C [3] 98.6% | viability, T/C [4] 85.8% | viability, T/C [5] 89.8% | viability, T/C [6] 69.8% | viability, T/C [7] 91.6% | viability, T/C [8] 83.3% | viability, T/C [9] 88.3% | viability, T/C [10] 94.7% | viability, T/C [11] 76.8% | viability, T/C [12] 66.2% | viability, T/C [13] 95% | viability, T/C [14] 105% | viability, T/C [15] 91.8% | viability, T/C [16] 104% | viability, T/C [17] 78.5% | viability, T/C [18] 66.3% | viability, T/C [19] 104% | viability, T/C [20] 87.9% | viability, T/C [21] 94.7% | viability, T/C [22] 85.2% | viability, T/C [23] 91.4% | viability, T/C [24] 65.5% | viability, T/C [25] 94% | viability, T/C [26] 83.3% | viability, T/C [27] 88.4% | viability, T/C [28] 80.8% | viability, T/C [29] 75.4% | viability, T/C [30] 57.2% | viability, T/C [31] 77.4% | viability, T/C [32] 73.7% | viability, T/C [33] 75.8% | viability, T/C [34] 66.2% | viability, T/C [35] 72.6% | viability, T/C [36] 58.5%
> 10 µM: IC50 (second compound 0.0316 µM) | IC50 (second compound 0.1 µM) | IC50 (second compound 0.316 µM) | IC50 (second compound 1 µM) | IC50 (second compound 3.16 µM) | IC50 (second compound 10 µM)

C=CCn1c(=O)c2cnc(Nc3ccc(N4CCN(C)CC4)cc3)nc2n1-c1cccc(C(C)(C)O)n1 + Cc1[nH]c2ccc(F)cc2c1-c1nc2c3cccnc3c3ncccc3c2[nH]1
5.68 µM: IC50 (second compound 3.16 µM)
5.81 µM: IC50 (second compound 0.0316 µM)
5.57 µM: IC50 (second compound 10 µM)
5.46 µM: IC50 (second compound 0.316 µM)
5.31 µM: IC50 (second compound 0.1 µM)
inactive: viability, T/C [1] 99.1% | viability, T/C [2] 97.8% | viability, T/C [3] 92.5% | viability, T/C [4] 88% | viability, T/C [5] 69.9% | viability, T/C [6] 32% | viability, T/C [7] 120% | viability, T/C [8] 91.6% | viability, T/C [9] 92.5% | viability, T/C [10] 94.7% | viability, T/C [11] 64.8% | viability, T/C [12] 30% | viability, T/C [13] 110% | viability, T/C [14] 88.3% | viability, T/C [15] 81.7% | viability, T/C [16] 84.5% | viability, T/C [17] 70.3% | viability, T/C [18] 31.2% | viability, T/C [19] 102% | viability, T/C [20] 88.8% | viability, T/C [21] 86.7% | viability, T/C [22] 90.2% | viability, T/C [23] 64.3% | viability, T/C [24] 31.3% | viability, T/C [25] 83.7% | viability, T/C [26] 85% | viability, T/C [27] 92.1% | viability, T/C [28] 86.2% | viability, T/C [29] 66.8% | viability, T/C [30] 33.7% | viability, T/C [31] 90.3% | viability, T/C [32] 82.2% | viability, T/C [33] 84.5% | viability, T/C [34] 79.2% | viability, T/C [35] 69.4% | viability, T/C [36] 31.2%
5.29 µM: IC50 (second compound 1 µM)
